{
  "source": "paper PMC10349806",
  "about": "(Nature Communications, 2023)",
  "key": {"[1]": {"target": "T1, PfCRT variant E372A (Plasmodium falciparum, UniProt Q9N623, A220S/E372A/I356T/K76T/M74I/N326S/N75E/Q271E/R371I)", "T1 sequence (Q9N623 1-424 M74I/N75E/K76T/A220S/Q271E/N326S/I356T/R371I/E372A)": "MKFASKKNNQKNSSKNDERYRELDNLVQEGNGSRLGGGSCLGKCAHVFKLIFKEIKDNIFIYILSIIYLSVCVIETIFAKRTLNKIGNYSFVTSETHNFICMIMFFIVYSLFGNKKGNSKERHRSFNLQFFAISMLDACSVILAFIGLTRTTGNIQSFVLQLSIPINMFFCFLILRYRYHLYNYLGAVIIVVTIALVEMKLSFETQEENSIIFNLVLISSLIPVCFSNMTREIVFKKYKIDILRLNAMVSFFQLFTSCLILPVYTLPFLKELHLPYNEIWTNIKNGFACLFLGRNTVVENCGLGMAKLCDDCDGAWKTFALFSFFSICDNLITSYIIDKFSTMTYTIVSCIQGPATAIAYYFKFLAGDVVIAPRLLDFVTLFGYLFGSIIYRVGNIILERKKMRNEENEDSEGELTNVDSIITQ", "test": "CQ uptake assay, oocytes expressing E372A", "format": "cell-based", "protocol": "(§1) Site-directed mutagenesis of PfCRT^Dd2 was performed as described using the megaprimer method with overlap extension[21],[54]. The primer pairs used are listed in Supplementary Table 6. Please note that a codon-optimized and oocyte-adapted version of PfCRT^Dd2 was used[22] (Supplementary Fig. 16). The resulting DNA fragment was cloned into the SP64T expression vector and verified by sequencing.\n(§2) Oocytes were obtained as described previously. Briefly, adult (>2 years old) female X. laevis frogs (NASCO) were anesthetized in a cooled solution of ethyl 3-amino benzoate methanesulfonate (0.1%, w/v), followed by a surgical removal of parts of the ovary. The ovary lobes were carefully dissected and small pieces of oocytes were incubated in Ca^2+-free ND96 buffer (96 mM NaCl, 2 mM KCl, 1 mM MgCl2 buffered with 5 mM HEPES/NaOH, pH 7.5) supplemented with collagenase D (0.1%, w/v; Roche), BSA (0.5%, w/v), and 9 mm Na2HPO4 at 18 °C for 14-16 h while gentle shaking. After incubation, the oocytes were carefully washed several times with ND96 buffer (96 mM NaCl, 2 mM KCl, 1.8 mM CaCl2, 1 mM MgCl2 buffered with 5 mM HEPES/NaOH, pH 7.5) supplemented with 100 mg l^−1 gentamycin). Defolliculated and healthy-looking stage V-VI oocytes were manually selected for RNA microinjection. The RNA was generated as following: The codon-optimized sequences of PfCRT variants were cloned into the pSP64T expression vector. After vector linearization using the restriction endonucleases BamHI or SalI (New England Biolabs), transcription was performed using the in vitro SP6 mMessage mMachine Kit (Ambion)[34]. The obtained RNA was kept at −80 °C and diluted with nuclease-free water to a concentration of 0.6 μg μl^−1. Precision-bore glass capillary tubes (3.5-inch glass capillaries; Drummond Scientific Co.) were pulled on a vertical puller (P-87 Flaming/Brown micropipette puller, Sutter Instrument Co.), graduated, and placed on a microinjector (Nanoject II Auto-Nanoliter Injector, Drummond Scientific Co.). 50 nl of nuclease-free water alone (control oocytes) or 50 nl of 0.6 μg μl^−1 RNA were injected under stereomicroscopic control. Injected oocytes were incubated for 46–72 h at 18 °C with twice-daily buffer changes before usage in experiments.\n(§3) Drug uptake assays were performed as described previously[21],[22],[24],[34]. […] The direction of radio-labeled drug transport is here from the mostly acidic extracellular solution (pH 4.5 or 6.0, as indicated) into the oocyte cytosol (pH ∼ 7.2), which corresponds to the efflux of drug from the acidic digestive vacuole (pH 5.2) into the parasite cytoplasm (pH 7.2). The topology of PfCRT in the oolemma is such that both the N- and C-terminus face the extracellular milieu[3],[22]. In the parasite, the N- and C-terminus face the lumen of the digestive vacuole. CQ uptake kinetics were performed by incubating oocytes in ND96 buffer adjusted to a pH of 4.5, 5.0, 5.5, or 6.0 and supplemented with 50 nM [^3H]CQ and one of 7 different CQ concentrations (10 µM, 50 µM, 100 µM, 200 µM, 300 µM, 400 µM, 500 µM CQ). The reaction was stopped at the 60 min time point, which is in the linear uptake range[22],[34] (Supplementary Fig. 17). For determination of the amount of drug uptake for each oocyte, the reaction medium was removed and the oocytes were washed three times with 2 ml of ice-cold ND96 buffer. Each oocyte was individually transferred to a scintillation vial containing 5% sodium dodecyl sulfate (200 μl) for lysis. The radioactivity of each sample was measured using a liquid scintillation analyzer Tri-Carb 4910 TR (PerkinElmer). Oocytes that were injected with water instead of RNA were analyzed in parallel, representing the uptake of a drug by diffusion and/or endogenous permeation pathways. The resulting value represents the “background“ level of drug accumulation in oocytes (in-depth discussion in[22]). […]"}, "[2]": {"test_system": "PfCRT variant E207D", "test": "CQ uptake assay, oocytes expressing E207D", "format": "cell-based, Plasmodium falciparum", "protocol": "as §1, §2, §3"}, "[3]": {"conditions": "E372A, 50 µM CQ, 1 h, mean ± SEM"}, "[4]": {"conditions": "E207D, 50 µM CQ, 1 h, mean ± SEM"}},
  "note": "Values joined by “and” are separate entries in the source; they are usually repeats but may differ in a detail not shown here. Equal entries are not always repeated.",
  "data": [
    {"smiles": "CCN(CC)CCCC(C)Nc1ccnc2cc(Cl)ccc12", "note": "(stereo not shown) [CQ, chloroquine]", "values": [
      {"measurement": "Activity at pH 4.5", "setting": "[1]; [3]", "result": "2.23 ± 0.25", "unit": "pmol h-1 oocyte-1"},
      {"measurement": "Activity at pH 6.0", "setting": "[1]; [3]", "result": "4.71 ± 0.40", "unit": "pmol h-1 oocyte-1"},
      {"measurement": "R-value", "setting": "[1]; E372A, CQ transport at pH 4.5 / pH 6.0", "result": "0.49 ± 0.08 and 0.49"},
      {"measurement": "E372A transport activity pH 4.5", "setting": "[1]; pH 4.5, individual replicates (Fig 6a)", "result": "3.05 pmol oocyte-1 h-1 and 1.75 pmol oocyte-1 h-1 and 2.16 pmol oocyte-1 h-1 and 1.95 pmol oocyte-1 h-1"},
      {"measurement": "E3723A transport activity pH 4.5", "setting": "[1]; pH 4.5, single replicates, Fig 1d left", "result": "3.05 pmol oocyte-1 h-1 and 1.75 pmol oocyte-1 h-1 and 2.16 pmol oocyte-1 h-1 and 1.95 pmol oocyte-1 h-1"},
      {"measurement": "E372A transport activity pH 6.0", "setting": "[1]; individual replicates (Fig 6a)", "result": "4.02 pmol oocyte-1 h-1 and 4.13 pmol oocyte-1 h-1 and 6.01 pmol oocyte-1 h-1 and 4.68 pmol oocyte-1 h-1"},
      {"measurement": "E372A transport activity pH 6.0", "setting": "[1]; single replicates, Fig 1d left", "result": "4.02 pmol oocyte-1 h-1 and 4.13 pmol oocyte-1 h-1 and 6.01 pmol oocyte-1 h-1 and 4.68 pmol oocyte-1 h-1"},
      {"measurement": "Activity at pH 4.5", "setting": "[2]; [4]", "result": "1.82 ± 0.06", "unit": "pmol h-1 oocyte-1"},
      {"measurement": "Activity at pH 6.0", "setting": "[2]; [4]", "result": "5.13 ± 0.37", "unit": "pmol h-1 oocyte-1"},
      {"measurement": "R-value", "setting": "[2]; E207D, CQ transport at pH 4.5 / pH 6.0", "result": "0.36 ± 0.05"},
      {"measurement": "E207D transport activity pH 4.5", "setting": "[2]; pH 4.5, individual replicates, Fig 6b", "result": "1.93 pmol oocyte-1 h-1 and 1.78 pmol oocyte-1 h-1 and 1.98 pmol oocyte-1 h-1 and 1.89 pmol oocyte-1 h-1 and 1.82 pmol oocyte-1 h-1 and 1.51 pmol oocyte-1 h-1"},
      {"measurement": "E207D transport activity pH 6.0", "setting": "[2]; pH 6.0, individual replicates, Fig 6b", "result": "4.59 pmol oocyte-1 h-1 and 4.25 pmol oocyte-1 h-1 and 6.63 pmol oocyte-1 h-1 and 6.08 pmol oocyte-1 h-1 and 4.42 pmol oocyte-1 h-1 and 4.78 pmol oocyte-1 h-1"},
      {"measurement": "E207D R-value", "setting": "[2]; ratio of activity pH 4.5 / pH 6.0", "result": "0.42 and 0.30 and 0.31 and 0.41 and 0.32"}
    ]}
  ]
}
